We go through 32 compounds from patent publication US10307413B2, “Tetrahydro- and dihydro-isoquinoline PRMT5 inhibitors and uses thereof” (Epizyme, Inc., priority 2013, dated 2019).

Read-outs that look alike come from different tables or passages of the source. Where only a bound is given, the exact number is not on record here.

Assay [1] deals with Z-138 cell line. Nature of the assay: Z-138 Proliferation Assay (Cell Titer Glo, 5 days). As to conditions: Homo sapiens, read-out: Proliferation EC50. The assay is classed as cell-based. Summed up:
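Z-138 cells exposed 5 days at 37 °C, 5% CO2 to nine-point 3-fold dilutions (final top 20 μM, 0.2% DMSO), in triplicate. Viability read as ATP by CellTiter-Glo luminescence; IC50 from 4-parameter fit of normalized dose-response curves.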
In general terms: Cellular ATP, detected with luciferase, serves as a proxy for viable cell number.

The target in assay [2] is PRMT5/MEP50 (Homo sapiens (Human), UniProt O14744). Nature of the assay: PRMT5 Biochemical Assay (PRMT5/MEP50 enzyme assay on peptide substrate, 3H-SAM Flashplate). As to conditions: PRMT5 biochemical assay. Summed up: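 Radiometric methylation of a biotin-tagged H4(1-15) peptide by human PRMT5/MEP50 from baculovirus/Sf9, with ³H-SAM incorporation read on streptavidin Flashplates. Buffer: Bicine pH 7.6, TCEP, BSG, Tween20; compound preincubated 30 min at 25 °C; stopped with 600 µM final unlabeled SAM. DMSO and SAH controls; IC50 from fitted % inhibition.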
Chain of PRMT5/MEP50 (O14744 other isoform, or with tags, fused parts or gaps): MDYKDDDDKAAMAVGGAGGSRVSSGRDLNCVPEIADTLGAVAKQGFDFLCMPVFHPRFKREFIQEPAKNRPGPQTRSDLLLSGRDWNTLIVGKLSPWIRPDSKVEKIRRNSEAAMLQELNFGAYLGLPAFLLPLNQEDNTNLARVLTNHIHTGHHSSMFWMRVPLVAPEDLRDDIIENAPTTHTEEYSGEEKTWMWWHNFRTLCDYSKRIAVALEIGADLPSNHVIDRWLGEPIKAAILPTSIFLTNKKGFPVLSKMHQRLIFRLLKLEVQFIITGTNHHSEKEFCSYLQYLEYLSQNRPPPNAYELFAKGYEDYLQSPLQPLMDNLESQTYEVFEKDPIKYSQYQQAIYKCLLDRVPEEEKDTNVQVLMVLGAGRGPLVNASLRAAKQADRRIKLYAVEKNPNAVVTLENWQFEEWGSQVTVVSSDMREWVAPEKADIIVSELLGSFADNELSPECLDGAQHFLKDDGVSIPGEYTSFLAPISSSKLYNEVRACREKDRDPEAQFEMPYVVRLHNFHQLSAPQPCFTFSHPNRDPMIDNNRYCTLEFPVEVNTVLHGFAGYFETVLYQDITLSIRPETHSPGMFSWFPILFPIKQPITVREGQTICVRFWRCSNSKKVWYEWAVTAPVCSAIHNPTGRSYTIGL
Chain of PRMT5/MEP50 (Q9BQA1 other isoform, or with tags, fused parts or gaps partner): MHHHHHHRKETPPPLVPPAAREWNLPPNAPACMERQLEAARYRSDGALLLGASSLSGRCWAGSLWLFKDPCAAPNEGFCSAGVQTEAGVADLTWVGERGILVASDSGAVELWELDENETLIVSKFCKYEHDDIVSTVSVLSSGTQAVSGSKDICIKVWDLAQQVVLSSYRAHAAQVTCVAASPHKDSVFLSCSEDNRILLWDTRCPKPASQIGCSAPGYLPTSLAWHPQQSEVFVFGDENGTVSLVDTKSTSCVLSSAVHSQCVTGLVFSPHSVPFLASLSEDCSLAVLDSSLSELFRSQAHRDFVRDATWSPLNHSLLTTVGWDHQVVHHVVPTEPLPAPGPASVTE

The subject of assay [3] is symmetric di-methyl arginine in Z-138 cells. Nature of the assay: Z-138 Methylation Assay (In Cell Western for symmetric di-methyl arginine and DNA content). The class given is cell-based. As to conditions: Homo sapiens, In Cell Western methylation, read-out: ICW EC50. Summed up: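 Z-138 cells (50,000 cells/mL) treated with compound 96 h at 37 °C, then fixed and stained for symmetric di-methyl arginine (800 nm) with DRAQ5 DNA counterstain (700 nm) on Licor Odyssey.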

Setting [4] is: 120 h, Z-138 cells, 5 days, Cell Titer Glo.

In general, IC50 refers to the midpoint of a concentration-inhibition curve. For the compound `CC(=O)N1CCC(Nc2cc(C(=O)NCC(O)C(C)N3CCc4ccccc4C3)ncn2)CC1` (stereo not drawn) [Compound 609], the EC50 in assay [1] (setting [4]) was more than 5000 nM; in assay [3], more than 1000 nM. The IC50 in assay [2] lay in the range of 101 to 1000 nM.
The matching figures for `CC(=O)N1CCC(Nc2cc(C(=O)NC[C@H](O)CN3CCc4ccccc4C3)cc(N(C)C)n2)CC1` [Compound 610]: less than 100 nM, less than 100 nM and less than 100 nM.
The matching figures for `CC(=O)N1CCC(Nc2cc(C(=O)NC[C@H](O)CN3CCc4ccccc4C3)cc(N3CCOCC3)n2)CC1` [Compound 611]: less than 100 nM, less than 100 nM and less than 100 nM.
Turning to `CC(=O)N1CCC(Nc2cc(C(=O)NC[C@H](O)CN3CCc4ccccc4C3)cc(N3CCN(C)CC3)n2)CC1` [Compound 612], the EC50 in assay [1] (setting [4]) and in assay [3] was less than 100 nM each time. The IC50 in assay [2] was less than 100 nM.
For `CC(=O)N1CCC(Nc2cc(C(=O)NC[C@H](O)CN3CCc4ccccc4C3)cc(N3CCN(C(C)=O)CC3)n2)CC1` [Compound 613], the EC50 in assay [1] (setting [4]) was 101 to 1000 nM; in assay [3], less than 100 nM. Besides, the 50% inhibitory concentration (IC50) in assay [2] was less than 100 nM.
As for `COCCN(C)c1cc(C(=O)NC[C@H](O)CN2CCc3ccccc3C2)cc(NC2CCN(C(C)=O)CC2)n1` [Compound 614], the EC50 in assay [1] (setting [4]) and in assay [3] was less than 100 nM each time. Also, in assay [2], the IC50 was less than 100 nM.
For `CC(=O)[C@H]1CC[C@@H](Nc2cc(C(=O)NC[C@H](O)CN3CCc4ccccc4C3)ncn2)CC1` [Compound 615], the EC50 in assay [1] (setting [4]) and in assay [3] was less than 100 nM each time. The IC50 in assay [2] is less than 100 nM.
With `CCS(=O)(=O)CCNCC1CN2C=NC(C(=O)NC[C@H](O)CN3CCc4ccccc4C3)=CC2=N1` (stereo partly drawn) [Compound 617], the EC50 is more than 5000 nM in assay [1] (setting [4]) and more than 1000 nM in assay [3]. Also, the IC50 in assay [2] was 101 to 1000 nM.
The like results for `CO[C@H]1CC[C@@H](N(C)c2cc(C(=O)NC[C@H](O)CN3CCc4ccccc4C3)ncn2)CC1` [Compound 618] were, in that order, 1000 to 10000 nM, less than 100 nM and less than 100 nM.
Regarding `O=C(NC[C@H](O)CN1CCc2ccccc2C1)c1cnnc(OC2CCNCC2)c1` [Compound 619], the figures for the EC50 in assay [1] (setting [4]) and in assay [3] were 10000 to 50000 nM and 101 to 1000 nM, respectively. Moreover, the IC50 in assay [2] is less than 100 nM.
Regarding `CN1CCC(Oc2cc(C(=O)NC[C@H](O)CN3CCc4ccccc4C3)cnn2)CC1` [Compound 620], the EC50 in assay [1] (setting [4]) was 10000 to 50000 nM; in assay [3], 101 to 1000 nM. Besides, in assay [2], the IC50 is less than 100 nM.
The matching figures for `NC(=O)CN1CC(Nc2cc(C(=O)NC[C@H](O)CN3CCc4ccccc4C3)ncn2)C1` [Compound 621]: 1000 to 10000 nM, 1000 to 10000 nM and less than 100 nM.
As to `CNC(=O)CN1CC(Nc2cc(C(=O)NC[C@H](O)CN3CCc4ccccc4C3)ncn2)C1` [Compound 622], the EC50 in assay [1] (setting [4]) and in assay [3] was 1000 to 10000 nM in each case. In assay [2], the concentration for half-maximal inhibition (IC50) is less than 100 nM.
As to `CO[C@H]1CC[C@@H](Nc2cc(C(=O)NC[C@H](O)CN3CCc4ccccc4C3)ncn2)CC1` [Compound 624], the EC50 in assay [1] (setting [4]) and in assay [3] was less than 100 nM each time. Besides, the IC50 in assay [2] was less than 100 nM.
As for `O=C(NC[C@H](O)CN1CCc2ccccc2C1)c1cnnc(OC2CCN(CC(F)(F)F)CC2)c1` [Compound 626], the EC50 in assay [1] (setting [4]) fell in the range of 1000 to 10000 nM; in assay [3] it was 101 to 1000 nM. Also, the half-inhibitory concentration (IC50) in assay [2] fell in the range of 101 to 1000 nM.
`COc1cc(C(=O)NC[C@H](O)CN2CCc3ccccc3C2)cc(NC2CCN(C(C)=O)CC2)n1` [Compound 627]: the EC50 in assay [1] (setting [4]) and in assay [3] was less than 100 nM each time. The half-maximal inhibitory concentration (IC50) in assay [2] was less than 100 nM.
As to `CC(=O)N1CCC(Nc2cc(C(=O)NC[C@H](O)CN3CCc4ccccc4C3)cc(OCCN(C)C)n2)CC1` [Compound 628], the EC50 in assay [1] (setting [4]) and in assay [3] was less than 100 nM throughout. For the same compound, the IC50 in assay [2] was less than 100 nM.
For `CC(=O)N1CC(Nc2cc(C(=O)NC[C@H](O)CN3CCc4ccccc4C3)cnn2)C1` [Compound 629], the EC50 was in the range of 1000 to 10000 nM in assay [1] (setting [4]) and 101 to 1000 nM in assay [3]. The IC50 in assay [2] is less than 100 nM.
On to `CN[C@H]1CC[C@@H](Nc2cc(C(=O)NC[C@H](O)CN3CCc4ccccc4C3)ncn2)CC1` [Compound 630], for which the figures for the EC50 in assay [1] (setting [4]) and in assay [3] were more than 5000 nM and 101 to 1000 nM, respectively. Moreover, in assay [2], the IC50 was less than 100 nM.
With `CCN(C)[C@H]1CC[C@@H](Nc2cc(C(=O)NC[C@H](O)CN3CCc4ccccc4C3)ncn2)CC1` [Compound 631], the figures for the EC50 in assay [1] (setting [4]) and in assay [3] were more than 5000 nM and 101 to 1000 nM, respectively. In assay [2], the IC50 is less than 100 nM.
The matching figures for `CC(=O)N(C)[C@H]1CC[C@@H](Nc2cc(C(=O)NC[C@H](O)CN3CCc4ccccc4C3)ncn2)CC1` [Compound 632]: 101 to 1000 nM, less than 100 nM and less than 100 nM.
The matching figures for `O=C(NC[C@H](O)CN1CCc2ccccc2C1)C1=CC2=N[C@@H](CO)CN2C=N1` [Compound 634]: more than 5000 nM, more than 1000 nM and 101 to 1000 nM.
The like results for `CC(=O)N1CC(Nc2ccnc(C(=O)NC[C@H](O)CN3CCc4ccccc4C3)c2)C1` [Compound 635] were, in that order, less than 100 nM, less than 100 nM and less than 100 nM.
Regarding `O=C(NC[C@H](O)CN1CCc2ccccc2C1)c1cc(NC2CN(C(=O)C3CC3)C2)ccn1` [Compound 636], the EC50 in assay [1] (setting [4]) and in assay [3] was less than 100 nM throughout. Besides, in assay [2], the half-inhibitory concentration (IC50) was less than 100 nM.
As to `O=C(NC[C@H](O)CN1CCc2ccccc2C1)c1cc(N[C@H]2C[C@@H](N3CCOCC3)C2)ncn1` [Compound 637], the EC50 is 101 to 1000 nM in assay [1] (setting [4]) and less than 100 nM in assay [3]. In addition, the IC50 in assay [2] is less than 100 nM.
Take `O=C(NC[C@H](O)CN1CCc2ccccc2C1)c1cc(NC2CCN(C(=O)C3CC3)CC2)ccn1` [Compound 638]: the EC50 in assay [1] (setting [4]) and in assay [3] was less than 100 nM each time. The IC50 in assay [2] is less than 100 nM.
For `CSCCN1CCC(Nc2cc(C(=O)NC[C@H](O)CN3CCc4ccccc4C3)ncn2)CC1` [Compound 639], the EC50 in assay [1] (setting [4]) is 1000 to 10000 nM; in assay [3], less than 100 nM. Moreover, the IC50 in assay [2] was less than 100 nM.
Consider `CCS(=O)(=O)CCN1CCC(Nc2cc(C(=O)NC[C@H](O)CN3CCc4ccccc4C3)ncn2)CC1` [Compound 640], for which the EC50 was 101 to 1000 nM in assay [1] (Z-138, 120 h) and less than 100 nM in assay [3]. For the same compound, the IC50 in assay [2] is less than 100 nM.
Take `CCS(=O)(=O)CCNc1cc(C(=O)NC[C@H](O)CN2CCc3ccccc3C2)ncn1` [Compound 641]: the EC50 in assay [1] (setting [4]) is 1000 to 10000 nM; in assay [3] it was less than 100 nM. Also, the IC50 in assay [2] was less than 100 nM.
Regarding `CC(=O)N1CC[C@@H](Nc2cc(C(=O)NC[C@H](O)CN3CCc4ccccc4C3)ncn2)C1` [Compound 642], the results for the EC50 in assay [1] (setting [4]) and in assay [3] were 101 to 1000 nM and less than 100 nM, respectively. Moreover, in assay [2], the IC50 was less than 100 nM.
In the case of `CC(O)(CNC(=O)c1cc(NC2COC2)ncn1)CN1CCc2ccccc2C1` (stereo not drawn) [Compound 646], the EC50 in assay [1] (setting [4]) was more than 20000 nM; in assay [3] it was 101 to 1000 nM. Also, in assay [2], the IC50 fell in the range of 101 to 1000 nM.
Consider `CC(O)(CNC(=O)c1cc(NC2CCNCC2)ncn1)CN1CCc2ccccc2C1` (stereo not drawn) [Compound 647], for which the EC50 is more than 5000 nM in assay [1] (setting [4]) and more than 1000 nM in assay [3]. Moreover, in assay [2], the IC50 lay in the range of 1000 to 10000 nM.
